Tests used:
[1] = Drug recovery in healthy human feces treated with [14C]indacaterol at 800 ug, po as single dose after 168 hrs postdose by liquid scintillation counting; type: ADME, organism-based; conditions: in vivo
[2] = Drug recovery in healthy human urine treated with [14C]indacaterol at 800 ug, po as single dose after 168 hrs postdose by liquid scintillation counting; type: ADME, organism-based; conditions: in vivo
Serum [3] = assay: Drug level in healthy human serum treated with [14C]indacaterol at 800 ug, po as single dose at 2 hrs by HPLC analysis; type: ADME, organism-based; conditions: in vivo
Serum [4] = assay: AUC (0 to 24 hrs) in healthy human serum treated with [14C]indacaterol at 800 ug, po as single dose by HPLC analysis relative to total radioactivity; type: ADME, organism-based; conditions: in vivo
Serum [5] = assay: Drug level in healthy human serum treated with [14C]indacaterol at 800 ug, po as single dose at 2 hrs by HPLC analysis relative to total radioactivity; type: ADME, organism-based; conditions: in vivo
[6] = Drug recovery in healthy human feces at 800 ug, po as single dose measured after 168 hrs postdose by liquid scintillation counting; type: ADME, organism-based; conditions: in vivo
Serum [7] = assay: AUC (0 to 24 hrs) in healthy human serum treated with [14C]indacaterol at 800 ug, po as single dose by HPLC analysis; type: ADME, organism-based; parameters: time < 24 hr, dose 800 ug, route oral; conditions: in vivo
Homo sapiens [8] = assay: Cmax in healthy human assessed as total radioactivity at 800 ug, po as single dose by LC-MS/MS analysis; type: ADME, organism-based; parameters: dose 800 ug, route oral; conditions: in vivo
Serum [9] = assay: Drug level in healthy human serum at 800 ug, po as single dose at 2 hrs by HPLC analysis relative to total radioactivity; type: ADME, organism-based; conditions: in vivo
Serum [10] = assay: Drug level in healthy human serum at 800 ug, po as single dose at 2 hrs by HPLC analysis; type: ADME, organism-based; conditions: in vivo
[11] = Drug recovery in healthy human urine assessed as total radioactivity at 800 ug, po as single dose after 168 hrs postdose by liquid scintillation counting; type: ADME, organism-based; conditions: in vivo
Serum [12] = assay: Drug metabolism in healthy human serum assessed as (2S,3S,4S,5R,6R)-6-((5,6-diethyl-2,3-dihydro-1H-inden-2-yl)((S)-2-hydroxy-2-(8-hydroxy-2-oxo-1,2-dihydroquinolin-5-yl)ethyl)amino)-3,4,5-trihydroxytetrahydro-2H-pyran-2-carboxylic acid formation at 800 ug, po as single dose by HPLC analysis; type: ADME, organism-based; conditions: in vivo
[13] = Drug recovery in healthy human feces assessed as total radioactivity at 800 ug, po as single dose after 168 hrs postdose by liquid scintillation counting; type: ADME, organism-based; conditions: in vivo
Homo sapiens [14] = assay: Tmax in healthy human assessed as total radioactivity at 800 ug, po as single dose by LC-MS/MS analysis; type: ADME, organism-based; conditions: in vivo
Serum [15] = assay: Drug metabolism in healthy human serum assessed as 2-(5,6-diethyl-2,3-dihydro-1H-inden-2-ylamino)acetic acid formation at 800 ug, po as single dose by HPLC analysis; type: ADME, organism-based; conditions: in vivo
Serum [16] = assay: AUC (0 to 24 hrs) in healthy human serum at 800 ug, po as single dose by HPLC analysis; type: ADME, organism-based; parameters: time < 24 hr, dose 800 ug, route oral; conditions: in vivo
Serum [17] = assay: Drug metabolism in healthy human serum assessed as 5,6-diethyl-2,3-dihydro-1H-inden-2-amine formation at 800 ug, po as single dose by HPLC analysis; type: ADME, organism-based; conditions: in vivo
Homo sapiens [18] = assay: AUC (0 to last) in healthy human assessed as total radioactivity at 800 ug, po as single dose by LC-MS/MS analysis; type: ADME, organism-based, Plasma; conditions: in vivo
Serum [19] = assay: AUC (0 to 24 hrs) in healthy human serum at 800 ug, po as single dose by HPLC analysis relative to total radioactivity; type: ADME, organism-based; conditions: in vivo
[20] = Drug recovery in healthy human urine at 800 ug, po as single dose after 168 hrs postdose by liquid scintillation counting; type: ADME, organism-based; conditions: in vivo
[21] = Tmax in healthy human at 800 ug, po as single dose by LC-MS/MS analysis; type: ADME, organism-based; conditions: in vivo
[22] = Drug recovery in healthy human feces at 800 ug, po as single dose after 168 hrs postdose by liquid scintillation counting; type: ADME, organism-based; conditions: in vivo
[23] = Cmax in healthy human at 800 ug, po as single dose by LC-MS/MS analysis; type: ADME, organism-based; parameters: dose 800 ug, route oral; conditions: in vivo
[24] = AUC (0 to 12 hrs) in healthy human at 800 ug, po as single dose by LC-MS/MS analysis; type: ADME, organism-based; parameters: dose 800 ug, time < 12 hr, route oral; conditions: plasma
Serum [25] = assay: Drug metabolism in healthy human serum treated with [14C]indacaterol at 800 ug, po as single dose by HPLC analysis; type: ADME, organism-based; conditions: in vivo

SMILES: CCc1cc2c(cc1C(C)O)CC(NC[C@H](O)c1ccc(O)c3[nH]c(=O)ccc13)C2 (stereo in doubt; P26.9)
- Drug recovery [1]: 17.44%
- Drug recovery [2]: 1.24%
- Drug uptake (Serum [3]): 0.18 ngequiv/ml
- Drug uptake (Serum [4]): 12.4%
- Drug uptake (Serum [5]): 13.2%
- Drug recovery [6]: 17%
- AUC (Serum [7]): 1.8 ng.Eq.hr/ml

SMILES: CCc1cc2c(cc1[14CH2]C)CC(NC[C@H](O)c1ccc(O)c3[nH]c(=O)ccc13)C2 (stereo partly drawn)
- Cmax (Homo sapiens [8]): 1.4 ng.Eq/ml
- Drug uptake (Serum [9]): 31.4%
- Drug uptake (Serum [10]): 0.42 ngequiv/ml
- Drug recovery [11]: 9.7%
- Drug metabolism (Serum [12]): metabolite_detected
- Drug recovery [13]: 85.3%
- Tmax (Homo sapiens [14]): 2.5 h
- Drug metabolism (Serum [15]): metabolite_detected
- AUC (Serum [16]): 4.58 ng.Eq.hr/ml
- Drug metabolism (Serum [17]): metabolite_detected
- AUClast (Homo sapiens [18]): 27.2 ng.Eq.hr/ml
- Drug uptake (Serum [19]): 32.5%

SMILES: CCc1cc2c(cc1CC)CC(NC[C@H](O)c1ccc(O[C@@H]3O[C@H](C(=O)O)[C@@H](O)[C@H](O)[C@H]3O)c3[nH]c(=O)ccc13)C2
- Drug recovery [1]: 0%
- Drug recovery [2]: 0.53%
- Drug uptake (Serum [3]): 0.1 ngequiv/ml
- Drug uptake (Serum [4]): 4.22%
- Drug uptake (Serum [5]): 7.42%
- AUC (Serum [7]): 0.6 ng.Eq.hr/ml

SMILES: CCc1cc2c(cc1CC)CC(NC[C@H](O)c1ccc(O)c3[nH]c(=O)ccc13)C2.O=C(O)/C=C\C(=O)O [INDACATEROL MALEATE]
- Drug recovery [20]: 0.34%
- Tmax [21]: 1.75 h
- Drug recovery [22]: 54.42%
- Cmax [23]: 0.47 ng/mL
- Drug recovery [6]: 54%
- AUC(0-t) at 12 h [24]: 1.81 ng·h/mL

SMILES: CCc1cc2c(cc1C(C)O)CC(NC[C@H](O)c1ccc(O)c3[nH]c(=O)ccc13)C2 (stereo in doubt; P30.3)
- Drug recovery [1]: 6.33%
- Drug recovery [2]: 0.31%
- Drug recovery [6]: <= 6%

SMILES: CCc1cc2c(cc1C(C)O)CC(NC[C@H](O)c1ccc(O[C@@H]3O[C@H](C(=O)O)[C@@H](O)[C@H](O)[C@H]3O)c3[nH]c(=O)ccc13)C2 (stereo partly drawn)
- Drug recovery [1]: 0%
- Drug recovery [2]: 0.83%
- Drug uptake (Serum [3]): 0.12 ngequiv/ml
- Drug uptake (Serum [4]): 5.78%
- Drug uptake (Serum [5]): 9.31%
- AUC (Serum [7]): 0.82 ng.Eq.hr/ml

SMILES: CCc1cc2c(cc1CC)CC(NCC(=O)O)C2
- Drug recovery [1]: 0%
- Drug recovery [2]: 0.97%
- Drug metabolism (Serum [25]): metabolite_detected

SMILES: CCc1cc2c(cc1CC)CC(N(C[C@H](O)c1ccc(O)c3[nH]c(=O)ccc13)[C@@H]1O[C@H](C(=O)O)[C@@H](O)[C@H](O)[C@H]1O)C2
- Drug metabolism (Serum [25]): metabolite_detected

SMILES: CCc1cc2c(cc1CC)CC(N)C2
- Drug recovery [1]: 1.7%
- Drug recovery [2]: 0%
- Drug metabolism (Serum [25]): metabolite_detected
- Drug recovery [6]: <= 6%

From ChEMBL document CHEMBL3525982, “Metabolism and pharmacokinetics of indacaterol in humans” (Drug Metab Dispos, 2012)
